# Reference: EP4656642A1, “ESTROGEN RECEPTOR PROTEOLYSIS TARGETING CHIMERA COMPOUND AND USE THEREOF” (GAN & LEE PHARM CO., LTD, priority 2023, dated 2024)
# Key:
# Assay type in all cases: cell-based
# ERα [1] = molecular target: T1, ERα (Homo sapiens, UniProt P03372); assay: Degradation of ERα in MCF-7 cells (immunoblotting, 4 h)
# T1 sequence (P03372 1-595): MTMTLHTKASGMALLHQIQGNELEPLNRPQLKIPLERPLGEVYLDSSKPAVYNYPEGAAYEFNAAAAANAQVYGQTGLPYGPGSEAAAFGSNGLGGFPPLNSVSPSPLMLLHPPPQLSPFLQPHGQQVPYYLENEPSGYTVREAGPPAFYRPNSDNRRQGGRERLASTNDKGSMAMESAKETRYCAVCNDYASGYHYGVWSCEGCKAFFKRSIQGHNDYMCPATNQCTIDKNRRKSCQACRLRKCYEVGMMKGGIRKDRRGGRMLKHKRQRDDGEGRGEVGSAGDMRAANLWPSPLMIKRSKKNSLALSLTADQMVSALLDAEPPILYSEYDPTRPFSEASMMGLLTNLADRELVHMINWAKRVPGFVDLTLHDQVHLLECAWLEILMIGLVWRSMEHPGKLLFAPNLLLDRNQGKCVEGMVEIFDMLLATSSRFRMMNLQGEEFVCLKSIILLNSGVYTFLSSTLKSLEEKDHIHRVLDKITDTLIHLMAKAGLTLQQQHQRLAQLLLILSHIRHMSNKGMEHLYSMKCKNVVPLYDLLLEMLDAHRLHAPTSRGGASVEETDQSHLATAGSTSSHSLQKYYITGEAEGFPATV
# How it was run: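 MCF-7 cells treated 4 h at 37°C with compounds at 0.15-1000nM final. ERα in lysates measured by immunoblot, with band grayscale normalized to an internal reference protein. Degradation rate calculated against DMSO-treated control.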
# T-47D cells = assay: Inhibition of cell proliferation in T-47D cells (CCK-8, 6 days); settings: 6 days of treatment, Table 3
# How it was run: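 T-47D cells at 3,000 cells/well in RPMI 1640 with 10% FBS were exposed to a concentration series of PROTAC compounds for 6 days at 37 °C, 5% CO2. Viability was read by CCK-8, and IC50 values were derived for proliferation inhibition.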
# ERα [2] = molecular target: T1, ERα; assay: Degradation of ERα in T-47D cells (immunoblotting, 4 h); parameters: host or cells: T-47D
# How it was run: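 T-47D cells were treated with compound (final 0.15-1000 nM, DMSO) for 4 h at 37°C, 5% CO2. Cells were lysed in RIPA buffer with protease inhibitor, and ERα protein in the cleared lysate was measured by immunoblotting.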
# MCF-7 cells = assay: Inhibition of cell proliferation of MCF-7 cells (CCK-8, 9 days); settings: treated for 9 days, CCK-8 kit (Table 6)
# How it was run: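 MCF-7 cells seeded at 800 cells/well in DMEM with 10% FBS, exposed to a range of compound concentrations for 9 days at 37°C, 5% CO2. Viability read by CCK-8; IC50 derived for proliferation inhibition.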
SMILES,Degradation rate (%) of ERα in MCF-7 cells (ERα [1]; 1nM compound) [%],Degradation rate (%) of ERα in MCF-7 cells (ERα [1]; 10nM compound) [%],IC50 (T-47D cells) [nM],Degradation rate (%) of ERα in T-47D cells (ERα [2]; 1nM compound) [%],Degradation rate (%) of ERα in T-47D cells (ERα [2]; 10nM compound) [%],IC50 (MCF-7 cells) [nM]
C[C@@H]1C[C@H](N2CCC3(CC2)COc2c3ccc3c2CN(C2CCC(=O)NC2=O)C3=O)CCN1C(=O)C1CCN(c2ccc([C@@H]3c4ccc(O)cc4CC[C@@H]3c3ccccc3)cc2)CC1 (stereo partly drawn) [H28],36,65,1.01,62,83,8.41
C[C@@H]1C[C@H](N2CCC3(CC2)COc2c3ccc3c2CN(C2CCC(=O)NC2=O)C3=O)CCN1C1CC2(CCN(c3ccc([C@@H]4c5ccc(O)cc5CC[C@@H]4c4ccccc4)cc3)CC2)C1 (stereo partly drawn) [H30],-1,62,5.78,37,74,0.115
COC(=O)[C@@H]1C[C@H](N2CCC3(CC2)COc2c3ccc3c2CN(C2CCC(=O)NC2=O)C3=O)CCN1C1CC2(CCN(c3ccc([C@@H]4c5ccc(O)cc5CC[C@@H]4c4ccccc4)cc3)CC2)C1 (stereo partly drawn) [H31],46,83,1.8,55,85,43.3
COC(=O)[C@@H]1C[C@H](N2CCC3(CC2)COc2c3ccc3c2CN(C2CCC(=O)NC2=O)C3=O)CCN1C1CCN(c2ccc([C@@H]3c4ccc(O)cc4CC[C@@H]3c3ccccc3)cc2)CC1 (stereo partly drawn) [H32],35,58,1.44,52,77,4020
O=C1CCC(N2Cc3c(ccc4c3OCC43CCN(C4CCN(C5CC6(CCN(c7ccc([C@@H]8c9ccc(O)cc9CC[C@@H]8c8ccccc8)cc7)CC6)C5)CC4F)CC3)C2=O)C(=O)N1 (stereo partly drawn) [H33],32,76,1.37,27,72,12.5
O=C1CCC(N2Cc3c(ccc4c3OCC43CCN(C4CCN(C5CCN(c6ccc([C@@H]7c8ccc(O)cc8CC[C@@H]7c7ccccc7)cc6)CC5)CC4F)CC3)C2=O)C(=O)N1 (stereo partly drawn) [H34],42,65,1.33,30,77,10.9
O=C1CCC(N2Cc3c(ccc4c3OCC43CCN([C@H]4CCN(C5CC6(CCN(c7ccc([C@@H]8c9ccc(O)cc9CC[C@@H]8c8ccccc8)cc7)CC6)C5)C[C@H]4F)CC3)C2=O)C(=O)N1 (stereo partly drawn) [H36],24,70,1.06,21,75,72.4
CNC(=O)[C@@H]1CC(N2CCC3(CC2)COc2c3ccc3c2CN(C2CCC(=O)NC2=O)C3=O)CCN1C1CC2(CCN(c3ccc([C@@H]4c5ccc(O)cc5CC[C@@H]4c4ccccc4)cc3)CC2)C1 (stereo partly drawn) [H38],49,71,2.58,34,75,31.8
C[C@H]1CN(C2CC3(CCN(c4ccc([C@@H]5c6ccc(O)cc6CC[C@@H]5c5ccccc5)cc4)CC3)C2)CC[C@H]1N1CCC2(CC1)COc1c2ccc2c1CN(C1CCC(=O)NC1=O)C2=O (stereo partly drawn) [H39],20,71,3.38,15,64,65.2
